Measurements published in patent publication US20250333419A1, “BICYCLIC COMPOUNDS AS INHIBITORS OF WRN” (Incyte Corporation, priority 2023, published 2025).

How the values were obtained:
[1] = target: T1, WRN Cys727Ala (Homo sapiens, UniProt Q14191, C727A); assay: ATPase assay on WRN Cys727Ala mutant, without preincubation; format: biochemical
T1 construct: Point mutations were made in the His-tagged WRN construct used for biochemical characterization (aa S2-S1235); His; made in house
Protocol: (§1) Point mutations were made in the His-tagged WRN construct used for biochemical characterization (aa S2-S1235). Cysteine 580 (Walker A motif), 727 (linker), 864 (Domain 2 Å) and 1041 (RQC domain) were each mutated to both Serine and Alanine using site directed mutagenesis, for a total of eight mutants. Purified proteins were assayed in both helicase and ATPase assays. Cys580 mutation to either Ser or Ala abolished all activity, consistent with Walker A motif cysteine function. Cys864 (D2) mutation to alanine and Cys1041 (RQC domain) had no significant impact on helicase or ATPase activity. Cys727 abolished helicase activity (Table 6), whether it was mutated to Ala or Ser. ATPase activity for Cys727 mutants was reduced but not abolished (Table 7). Table 6 is the panel of the nine variant WRN helicase proteins that were screen using a flourscence-based DNA unwinding assay with an increase in flourscence intensity indicating DNA unwinding. Table 7 is the panel of the nine variant WRN helicase proteins that were screened using ADP-Glo assay to measure DNA stimulated ATPase activity, with an increase in luminescence indicating ATP hydrolysis.
(§2) From FIG. 2, the top line represented WT. […] The mutant experiments were performed without preincubation.

[2] = target: T2, WRN Cys727Ser (Homo sapiens, UniProt Q14191, C727S); assay: ATPase assay on WRN Cys727Ser mutant, without preincubation; format: biochemical
T2 construct: Point mutations were made in the His-tagged WRN construct used for biochemical characterization (aa S2-S1235); His; made in house
Protocol: as §1, §2

[3] = target: T3, WRN (Homo sapiens, UniProt Q14191); assay: WRN ATPase activity assay (ADP-Glo); format: biochemical; conditions: IC50, 1-hr pre-incubation with enzyme; geometric means of at least 2 independent replicates
T3 construct: A His-tagged construct of WRN (AA S2-S1235) was produced and used for the ATPase assay; His; made in house; host or cells: Sf9 insect cells (baculovirus)
Protocol: Compounds of the Examples were tested for WRN ATPase activity. WRN ATPase activity catalyzes ATP hydrolysis to produce ADP and phosphate. DNA encoding the target protein, 6×HIS-TEV-WRN-517-945, was produced, cloned and transfected as detailed in Example D. The amount of ADP produced was measured using ADP-Glo™ Kinase Assay kit from Promega Corporation in a Greiner white regular volume 384 wells assay plate (Greiner #781075). Data was normalized to a standard curve generated using various ADP concentrations and the corresponding luminescent signal intensities at each concentration. The assay conditions were optimized for enzyme concentration (WRN), substrate concentrations (ATP & dsDNA), and the linearity of the ATPase reaction, in the following assay buffer: 50 mM Tris-HCl, pH-7.5, 2 mM MgCl2, 50 mM NaCl, 1 mM EGTA, 0.01% P-20, 0.05% BSA, and 2 mM DTT prepared with nuclease free water.
A serial dilution (1:3 scheme) of the compounds were prepared in neat DMSO, with 100 nL of the compounds dispensed in the 384 wells assay plate. An 1-hr pre-incubation of the compounds with enzyme was included. A His-tagged construct of WRN (AA S2-S1235) was produced and used for the ATPase assay. Maximum inhibition control wells were set up with the addition of only assay buffer, and no inhibition control wells were set up with neat DMSO without test compounds. The reaction was initiated by addition of 5 μL substrate mix (200 μM ultrapure ATP, and 50 nM dsDNA prepared in assay buffer) and incubated at 25° C. for 35 min. A forked dsDNA oligomer substrate was prepared by annealing equal amounts of oligo GPat-1 ([BHQ2][…]) and oligo GPat-2 ([…][TAM]) and was used as dsDNA substrate for WRN ATPase assay. A typical ATPase reaction consists of 25 nM forked dsDNA, 100 μM ATP, and 1 nM WRN prepared in assay buffer. The WRN ATPase reaction was stopped by the addition of 5 μL of ADP-Glo Reagent from ADP-Glo™ Kinase Assay kit and incubated for 40 min to deplete the unreacted ATP. Afterwards, 5 μL of Kinase Detection Reagent from the ADP-Glo™ Kinase Assay kit was added and incubated for 1 hr for the development of luminescence signal.
Luminesce signals were measured on BMG PHERAstar FSX using luminescence protocol. Data analysis was carried out using Genedata software following % of control normalization. Fitting parameters include dose response IC50, Hill slope (n), maximum inhibition (S∞), and minimum inhibition (S0). The reported IC50 values for compounds in this invention are the geometric means of at least 2 independent replicates.

[4] = target: T3, WRN; assay: WRN Helicase activity assay (fluorescence DNA unwinding); format: biochemical; conditions: IC50, 1-hr pre-incubation with enzyme; geometric means of at least 2 independent replicates
Protocol: Compounds of the examples were tested for WRN helicase activity. DNA encoding the target protein, 6×HIS-TEV-WRN-517-945, was produced, cloned and transfected as detailed in Example D. To determine the inhibitory properties of the compounds, a 384 wells plate-based Helicase assay was set up to measure the extent of DNA unwinding (Helicase) activity of WRN. The WRN Helicase assay was designed to measure increase in fluorescence signal using a fluorescence based, donor-quencher paired forked dsDNA oligomer substrate (custom synthesis from Sigma-Aldrich) prepared by annealing equal amounts of oligo GPat-1 ([BHQ2][…]) and oligo GPat-2 ([…][TAM]). Continuous measurement of fluorescent signal was used to optimize the buffer conditions, concentration of enzyme (WRN), concentration of substrates (ATP & dsDNA), and the linearity of the Helicase reaction. All solutions were prepared in the following assay buffer: 50 mM Tris-HCl, pH-7.5, 2 mM MgCl2, 50 mM NaCl, 1 mM EGTA, 0.01% P-20, 0.05% BSA, and 2 mM DTT prepared with nuclease free water.
A serial dilution (1:3 scheme) of the compounds was prepared in neat DMSO and 100 nL of the compounds was dispensed in the Greiner black low volume (Greiner #784076) 384 wells assay plate. An 1-hr pre-incubation of the compounds with enzyme was included. A His-tagged construct of WRN (AA S2-S1235) was produced and used for the ATPase assay. Maximum inhibition control wells were set up with the addition of only assay buffer, and no inhibition control wells were set up with neat DMSO without test compounds. The reaction was initiated by addition of 5 μL substrate mix (200 μM ultrapure ATP, and 50 nM dsDNA prepared in assay buffer) and incubated at 25° C. for 35 min. A typical Helicase reaction consists of 25 nM forked dsDNA, 100 μM ATP, and 1 nM WRN prepared in assay buffer. The WRN Helicase reaction was quenched by the addition of 5 μL ‘STOP’ solution containing 100 mM EDTA (final EDTA concentration 33.33 mM) prepared in assay buffer. The plates were read on BMG PHERAstar FSX using 540/590 module to measure an increase of fluorescence. Data analysis was carried out using the Genedata software following % of control normalization. Fitting parameters include dose response IC50, Hill slope (n), maximum inhibition (S∞), and minimum inhibition (S0). The reported IC50 values for compounds in this invention are the geometric means of at least 2 independent replicates.

[5] = target: T4, WRN helicase (Homo sapiens, UniProt Q14191); assay: ATPase assay on WRN helicase (ADP-Glo) with varied preincubation times; format: biochemical
T4 construct: His-tagged WRN construct used for biochemical characterization (aa S2-S1235); His; made in house; host or cells: Sf9 insect cells (baculovirus)
Protocol: An ATPase assay on WRN helicase was performed using ADP-Glo and IC50 values were determined by varying the compound of Example 1 preincubation times (FIG. 1). […] In FIG. 1, 0 hrs is represented by bottom dotted line; 1 hour is represented by the broken line with two bullets; 2 hrs is represented by solid line; and 4 hrs is represented by top dashed line.

[6] = system: WRN helicase; assay: Intact mass spectrometry and peptide mapping of covalent modification; format: binding
Protocol: The intact WRN helicase has an observed mass of 67,573.1 Da (theoretical mass of 67,409.4 Da). The WRN helicase incubated with the compound of Example 1 has an observed mass of 68,164.5 (theoretical mass of 1:1 adduct 68,000 Da). The shift in the observed mass between intact WRN and WRN incubated with the compound of Example 1 is equivalent to the theorectical mass of the compound of Example 1 (592.2 Da). […] The mass spectrometry results, combined with the ATPase assay results established that covalently targeting Cys727 is and effective and tractable way to inhibit both the ATPase and helicase activities of WRN.

T4 sequence (Q14191 2-1235): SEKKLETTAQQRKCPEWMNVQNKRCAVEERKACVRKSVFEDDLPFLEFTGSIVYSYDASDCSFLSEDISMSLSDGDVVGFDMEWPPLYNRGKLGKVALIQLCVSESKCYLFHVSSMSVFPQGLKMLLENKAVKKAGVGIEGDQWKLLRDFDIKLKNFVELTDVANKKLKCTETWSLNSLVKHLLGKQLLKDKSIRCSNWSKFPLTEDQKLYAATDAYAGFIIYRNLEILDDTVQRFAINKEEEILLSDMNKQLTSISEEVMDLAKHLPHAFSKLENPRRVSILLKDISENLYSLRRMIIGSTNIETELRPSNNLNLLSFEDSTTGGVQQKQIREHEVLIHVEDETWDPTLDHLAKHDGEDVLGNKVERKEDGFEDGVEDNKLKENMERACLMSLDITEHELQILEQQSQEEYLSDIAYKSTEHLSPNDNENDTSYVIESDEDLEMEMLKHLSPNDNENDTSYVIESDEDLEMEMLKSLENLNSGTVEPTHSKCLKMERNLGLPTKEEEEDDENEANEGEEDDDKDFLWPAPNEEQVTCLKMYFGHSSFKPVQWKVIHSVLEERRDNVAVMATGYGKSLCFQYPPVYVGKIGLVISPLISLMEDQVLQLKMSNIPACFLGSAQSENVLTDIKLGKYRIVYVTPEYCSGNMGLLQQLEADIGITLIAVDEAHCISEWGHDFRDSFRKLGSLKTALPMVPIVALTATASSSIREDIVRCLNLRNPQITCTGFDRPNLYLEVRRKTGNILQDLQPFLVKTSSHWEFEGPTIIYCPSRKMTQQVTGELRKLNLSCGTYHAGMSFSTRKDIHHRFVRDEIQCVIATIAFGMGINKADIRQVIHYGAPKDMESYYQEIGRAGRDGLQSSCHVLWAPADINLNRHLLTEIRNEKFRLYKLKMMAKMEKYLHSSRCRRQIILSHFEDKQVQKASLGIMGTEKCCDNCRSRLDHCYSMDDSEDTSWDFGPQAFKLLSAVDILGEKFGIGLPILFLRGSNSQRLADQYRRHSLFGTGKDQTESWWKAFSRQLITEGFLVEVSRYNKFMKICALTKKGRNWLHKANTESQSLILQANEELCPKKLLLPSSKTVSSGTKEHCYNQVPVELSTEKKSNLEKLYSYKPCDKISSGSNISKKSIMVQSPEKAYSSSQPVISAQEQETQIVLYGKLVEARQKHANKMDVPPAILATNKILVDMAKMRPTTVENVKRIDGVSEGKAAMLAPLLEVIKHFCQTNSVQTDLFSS
T1 sequence (Q14191 2-1235 C727A): as the sequence (Q14191 2-1235) above, with C726A counted along it
T3 sequence (Q14191 2-1235): as the sequence (Q14191 2-1235) above
T2 sequence (Q14191 2-1235 C727S): as the sequence (Q14191 2-1235) above, with C726S counted along it

For C=CC(=O)Nc1ccccc1-c1c(CC)n(CC(=O)Nc2ccc(C(F)(F)F)cc2)c2nc(C3=CCOCC3)nn2c1=O [Example 1, N-(2-(2-(3,6-Dihydro-2H-pyran-4-yl)-5-ethyl-7-oxo-4-(2-oxo-2-((4-(trifluoromethyl)phenyl)amino)ethyl)-4,7-dihydro-[1,2,4]triazolo[1,5-a]pyrimidin-6-yl)phenyl)acrylamide], the “fold shift relative to WT” value ([1]; Cys727Ala vs WT, without preincubation) was 13 fold, the IC50 ([1]; Cys727Ala, without preincubation) was 5820 nM and the “effect of Cys 727 mutation on potency” value ([1]; FIG. 2, Cys727Ala and Cys727Ser) was “reduces the potency”. The IC50 ([2]; Cys727Ser) was 38500 nM, the “fold shift relative to WT” value ([2]; Cys727Ser vs WT) was 86 fold and the IC50 [3] was less than 100 nM. The IC50 [4] was less than 100 nM, the “time dependence of inhibition” value ([5]; FIG. 1) was “inhibits WRN helicase in a time dependent manner” and the IC50 ([5]; preincubation 1 hour) was 24 nM. It also gave an IC50 ([5]; preincubation 2 hrs) of 12 nM, an IC50 ([5]; preincubation 4 hrs) of 8 nM and an IC50 ([5]; without preincubation) of 449 nM. For the same compound, the “adduct formation with WRN helicase” value ([6]; intact mass spectrometry) was 1:1 adduct and the residue modified ([6]; peptide mapping analysis) was “Cys727 is the only residue to be modified”.
